Read-outs that look alike come from different tables or passages of the source.
Legend:
[1] = tissue distribution after single intravenous administration of the emulsion of Ex. VI, GC headspace; type: in vivo, Sprague Dawley rats
From the text: (§1) This study was designed to assess the pharmokinetics and tissue distribution of PFOB and PFDB following a single intravenous administration of the emulsion of Ex. VI at various time intervals at dose levels of 1.8 and 3.6 g PFC/k in male and female Sprague Daley rats, aged 7-9 weeks, weight between 190-267 grams. For pharmacokinetics, 160 rats were divided into 20 groups (N=4 rats/sex/dose/time interval) and for tissue distribution, 156 rats were divided into 26 groups (n=3 rats/sex/dose/time interval). The time intervals for pharmacokinetics blood sampling were 0.083, 0.5, 1, 3, 6, 12, 36, 48, 72 and 96 hours. The time intervals for tissue sampling was predose, 24 hours, 1, 2, 4, 8, 13, 17, 21, 26, 39, 52 and 72 weeks.
26 groups (N=3 rats/sex/group). Prior to euthanasia, body weights were recorded. At designated times (see below), rats were anesthetized with METOFANE® and esanguinated via the abdominal artery. Blood was collected into syringes containing EDTA and transferred into sealed plastic containers for storage at approximately −20° C. until analyzed. Resultant data were included in the determination of pharmacokinetic parameters. The following tissues were collected from each rat and placed in sealed containers and stored frozen at −20° C. Prior to freezing, blood and tissue samples were processed for analysis. PFOB and PFDB were quantified in blood and tissues using a GC headspace method validated by Oread. The method was validated in the liver and then cross validated to all other tissues, blood, and serum. The tissues collected and analyzed include heart, lungs, abdominal fat, spleen, liver, mesenteric lymph nodes, kidneys, adrenals, testes, ovaries, uterus, whole brain, eyes, skeletal muscle, femoral bone marrow, and gastrointestinal tract.
The concentration of PFOB and PFDB was determined in the tissues in both sexes at 12 time points. For the males, this was a total of 360 individual results including blood. There were 24 additional results for the female.

[2] = pharmacokinetics in blood after single intravenous administration of the emulsion of Ex. VI; type: in vivo, Sprague Dawley rats; settings: for MRT last / half-life: Sprague-Dawley, rat; for MRT last: read-out: MRT(0-last); for Vd: terminal phase; for half-life: iv, read-out: T1/2 (converted)
From the text: as §1
Six pharmacokinetic parameters were determined following a single intravenous dose of 1.8 gPFC/kg or 3.6 g PFC/kg in both the male and female rats as shown in the tables below.

[3] = in vivo; cited from earlier work
[4] = Phase 1 pharmacokinetics in healthy human volunteers; type: in vivo; settings: for AUC(0-t) / half-life / Cmax: human, blood; for AUC(0-t) / half-life: intravenous; for AUC(0-t): read-out: AUC (0-336); for half-life: read-out: t1/2. 12 h (initial elimination half-life within the first 12 h post dose) (converted); for Cmax: iv, healthy volunteers
Experimental: Two randomised, controlled, double-blind, parallel group, Phase 1 studies were conducted in healthy human patients with the fluorocarbon emulsion made according to Example VI. Blood and expired air samples were analysed for PFOB and PFDB after a single intravenous dose of 1.2 or 1.8 g PFC/kg of the fluorocarbon emulsion of Example VI in healthy human volunteers to determine pharmacokinetics. Blood samples were collected up to 336 hours post-dosing.

[5] = pharmacokinetics in subjects undergoing noncardiac surgical procedures; type: in vivo, human; settings: human, whole blood, noncardiac surgery; for clearance: read-out: CL (whole blood clearance) (converted); for Cmax: read-out: Cmax (maximum whole blood concentration); for half-life: read-out: T1/2 (elimination half-life) (converted)
Experimental: The pharmacokinetics of PFOB and PFDB were determined after the administration of the fluorocarbon emulsion of Example VI to subjects undergoing total hip replacement or spinal surgery or a variety of urologic and gynaecologic procedures including radical retropubic prostatectomy, radical hysterectomy, cystectomy and combined procedures. Human subjects in one study received either 0.9 g PFC/kg or 1.8 g PFC/kg of the fluorocarbon formulation of Example VI and those in a second study received 1.8 g PFC/kg of the fluorocarbon formulation of Example VI.

[6] = pharmacokinetics in subjects undergoing CABG surgery with hypothermic CPB; type: in vivo, human; settings: human, whole blood, other: directly into the bypass oxygenator, 2.7 g PFC/kg
Experimental: The pharmacokinetics of PFOB and PFDB were determined after the administration of the fluorocarbon formulation taught in Example VI to human subjects undergoing coronary artery bypass grafting or CABG surgery with hypothermic cardiopulmonary bypass. In group 1 and in group 2, human subjects received the fluorocarbon emulsion (2.7 g PFC/kg) as taught in Example VI directly into the bypass oxygenator after being put on bypass but before cooling was begun. In group 4, subjects received 2.7 g PFC/kg of the fluorocarbon emulsion of Example VI directly into the bypass oxygenator either prior to aortic cannulation or after being put on bypass, but before cooling was begun.

[7] = female rats, 1.8 g PFC/kg, 24 hours
[8] = female rats, 3.6 g PFC/kg, 24 hours
[9] = male rats, 1.8 g PFC/kg, 24 hours
[10] = female rats, 1.8 g PFC/kg single iv, blood
[11] = female rats, 3.6 g PFC/kg single iv, blood
[12] = male rats, 1.8 g PFC/kg single iv, blood
[13] = male rats, 3.6 g PFC/kg single iv, blood
[14] = 1.2 g PFC/kg, Table VII, 1.2 g PFC/kg
[15] = 1.2 g PFC/kg, Table VIII, 1.2 g PFC/kg
[16] = 1.8 g PFC/kg, Table VII, 1.8 g PFC/kg
[17] = 1.8 g PFC/kg, Table VIII, 1.8 g PFC/kg

Structure (SMILES): FC(F)(F)C(F)(F)C(F)(F)C(F)(F)C(F)(F)C(F)(F)C(F)(F)C(F)(F)C(F)(F)C(F)(F)Br [PFDB, perfluorodecyl bromide]
- concentration in the spleen and liver ([1]; 24 hours, males 1.8 g PFC/kg): above 1 mg/g
- concentration at 24 h ([1]; Sprague-Dawley, rat, intravenous, 24 hr, all tissues, both sexes and both doses, read-out: absolute concentration in tissues): > 1000 ng/g
- percent of dose in liver [1, 7]: ~86%
- percent of dose in spleen [1, 7]: approximately 14%
- percent of dose in liver [1, 8]: approximately 62%
- percent of dose in spleen [1, 8]: approximately 8%
- concentration in the lymph nodes, spleen, liver and bone marrow ([1]; females 3.6 g PFC/kg): above 1 mg/g
- percent of dose in liver [1, 9]: ~85%
- percent of dose in spleen [1, 9]: approximately 15%
- percent of dose in spleen ([1]; male rats, 3.6 g PFC/kg): approximately 11%
- percent of dose in liver ([1]; male rats, 3.6 g PFC/kg, 24 hours): ~69%
- concentration in the spleen, liver, and bone marrow ([1]; males 3.6 PFC/kg): above 1 mg/g
- MRT last ([2]; 1.8 g/kg, female rats, 1.8 g PFC/kg single iv, blood): 113 h
- MRT last ([2]; 1.8 g/kg, male rats, 1.8 g PFC/kg single iv, blood): 332 h
- MRT last ([2]; 3.6 g/kg, female rats, 3.6 g PFC/kg single iv, blood): 438 h
- MRT last ([2]; 3.6 g/kg, male rats, 3.6 g PFC/kg single iv, blood): 485 h
- AUC(o-last) [2, 10]: 6.86 mg·h/g
- AUC(o-∞) [2, 10]: 7.54 mg·h/g
- Cl [2, 10]: 238.76 g/h/kg
- T1/2 ([2]; female rats, 1.8 g PFC/kg single iv, blood, last 3 or 4 data points): 199.851 days
- Vd ([2]; female rats, 1.8 g PFC/kg single iv): 1652163 g/kg
- AUC(o-last) [2, 11]: 21.99 mg·h/g
- AUC(o-∞) [2, 11]: 22.87 mg·h/g
- Cl [2, 11]: 157.39 g/h/kg
- Vd ([2]; female rats, 3.6 g PFC/kg single iv): 1728719 g/kg
- half-life ([2]; female, blood, 1.8 g/kg, female rats, 1.8 g PFC/kg single iv, blood, last 3 or 4 data points): ~200 days
- half-life ([2]; female, blood, 3.6 g/kg, female rats, 3.6 g PFC/kg single iv, blood, last 3 or 4 data points): ~317 days
- AUC(o-last) [2, 12]: 6.88 mg·h/g
- AUC(o-∞) [2, 12]: 10.65 mg·h/g
- Cl [2, 12]: 169.05 g/h/kg
- Vd ([2]; male rats, 1.8 g PFC/kg single iv): 6128576 g/kg
- AUC(o-last) [2, 13]: 24.67 mg·h/g
- AUC(o-∞) [2, 13]: 27.62 mg·h/g
- Cl [2, 13]: 130.34 g/h/kg
- Vd ([2]; male rats, 3.6 g PFC/kg single iv): 2359442 g/kg
- half-life ([2]; male, blood, 1.8 g/kg, male rats, 1.8 g PFC/kg single iv, blood, last 3 or 4 data points): ~1050 days
- half-life ([2]; male, blood, 3.6 g/kg, male rats, 3.6 g PFC/kg single iv, blood, last 3 or 4 data points): ~523 days
- half-life in the RES [3]: 552 h
- t1/2. 12 h (initial elimination half-life within the first 12 h post dose) ([4]; Table VIII, 1.2 g PFC/kg): 13.6 h
- AUC(0-t) [4, 14]: 6640 µg·h/mL
- half-life [4, 14]: 13.7 ± 3.6 h
- AUC(0-t) [4, 15]: 4630 µg·h/mL
- half-life [4, 15]: 7.35 h
- AUC(0-t) [4, 16]: 16300 µg·h/mL
- half-life [4, 16]: 18.7 h
- AUC(0-t) [4, 17]: 11200 µg·h/mL
- half-life [4, 17]: 12.6 h
- Cmax ([4]; 1.2 g PFC/kg, Table VII, 1.2 g PFC/kg single iv): 540 ± 125 µg/mL
- Cmax ([4]; 1.2 g PFC/kg, Table VIII, 1.2 g PFC/kg single iv): 670 ± 420 µg/mL
- Cmax ([4]; 1.8 g PFC/kg, Table VII, 1.8 g PFC/kg single iv): 978 ± 499 µg/mL
- Cmax ([4]; 1.8 g PFC/kg, Table VIII, 1.8 g PFC/kg single iv): 884 ± 196 µg/mL
- AUC(0-inf) ([5]; 0.9 g PFC/kg): 736 ± 483 µg·h/mL
- clearance ([5]; 0.9 g PFC/kg): 0.973 mL/min/kg
- Cmax ([5]; 0.9 g PFC/kg): 284 ± 92.7 µg/mL
- half-life ([5]; 0.9 g PFC/kg): 2.73 ± 1.32 h
- AUC(0-inf) ([5]; 1.8 g PFC/kg): 2950 µg·h/mL
- clearance ([5]; 1.8 g PFC/kg): 0.595 mL/min/kg
- Cmax ([5]; 1.8 g PFC/kg): 620 ± 158 µg/mL
- half-life ([5]; 1.8 g PFC/kg): 5.56 ± 4.81 h
- AUC(0-inf) [6]: 16200 µg·h/mL
- clearance ([6]; read-out: CL (whole blood clearance) (converted)): 0.113 mL/min/kg
- Cmax ([6]; read-out: Cmax (maximum whole blood concentration)): 1030 µg/mL
- half-life ([6]; read-out: T1/2 (elimination half-life) (converted)): 10.8 ± 4.46 h

From patent publication US8748497B2, “Optimized fluorocarbon emulsions for blood substitutes and other therapeutic uses” (Alliance Pharmaceutical Corp., priority 2006, dated 2014)
